Results as given in ChEMBL document CHEMBL5365505, “Targeted Degradation of CDK4/6: An Innovative Approach to Overcoming Cancer Drug Resistance” (ACS Med Chem Lett, 2023).
“And” between values parts separate entries of the source, which are not always exact repeats. Identical values can stand only once.

How the values were obtained:
Assay type in all cases: ADME, organism-based
Details in all cases: in vivo
[1] = Cmax in C57BL/6 mouse at 10 mg/kg, po measured for 24 hrs by LC/MS/MS analysis; parameters: time 24 hrs, dose 10 mg/kg, route po
[2] = Half life in C57BL/6 mouse at 10 mg/kg, po measured for 24 hrs by LC/MS/MS analysis
[3] = AUClast in C57BL/6 mouse at 10 mg/kg, po measured for 24 hrs by LC/MS/MS analysis; parameters: dose 10 mg/kg, time 24 hrs, route po
[4] = AUC (infinity) in C57BL/6 mouse at 10 mg/kg, po measured for 24 hrs by LC/MS/MS analysis; parameters: dose 10 mg/kg, time 24 hrs, route po
[5] = Tmax in C57BL/6 mouse at 10 mg/kg, po measured for 24 hrs by LC/MS/MS analysis
[6] = Half life in C57BL/6 mouse at 25 mg/kg, ip measured for 24 hrs by LC/MS/MS analysis
[7] = AUClast in C57BL/6 mouse at 25 mg/kg, ip measured for 24 hrs by LC/MS/MS analysis; parameters: dose 25 mg/kg, time 24 hrs, route ip
[8] = Cmax in C57BL/6 mouse at 25 mg/kg, ip measured for 24 hrs by LC/MS/MS analysis; parameters: dose 25 mg/kg, time 24 hrs, route ip
[9] = AUC (infinity) in C57BL/6 mouse at 25 mg/kg, ip measured for 24 hrs by LC/MS/MS analysis; parameters: time 24 hrs, dose 25 mg/kg, route ip
[10] = Tmax in C57BL/6 mouse at 25 mg/kg, ip measured for 24 hrs by LC/MS/MS analysis

SMILES	Cmax [1] [ng/mL]	half-life [2] [h]	AUC(0-t) at 24 h [3] [ng·h/mL]	AUC(0-inf) [4] [ng·h/mL]	Tmax [5] [h]	half-life [6] [h]	AUC(0-t) at 24 h [7] [ng·h/mL]	Cmax [8]	AUC(0-inf) [9] [ng·h/mL]	Tmax [10] [h]
CC(=O)c1c(C)c2cnc(Nc3ccc(N4CCN(CC5CCN(c6ccc7c(c6)C(=O)N(C6CCC(=O)NC6=O)C7=O)CC5)CC4)cn3)nc2n(C2CCCC2)c1=O (stereo not given)	724	2.15	2470	2730	1	–	–	–	–	–
CC(=O)c1c(C)c2cnc(Nc3ccc(N4CCN(CCCCC(=O)N[C@H](C(=O)N5C[C@H](O)C[C@H]5C(=O)N[C@@H](C)c5ccc(-c6scnc6C)cc5)C(C)(C)C)CC4)cn3)nc2n(C2CCCC2)c1=O	–	–	–	–	–	7	8210	2550 ng/mL and 2.6 µM	9230	0.58
